Data: US20080108661A1, “Medicaments” (AstraZeneca AB, priority 2006, published 2008)

Key:
[1] = test system: murine articular knee joint; assay: Histamine-induced joint oedema, murine articular knee joint (calliper measurements); assay type: in vivo, mouse
Excerpt: (§1) (iii) In Vivo Functional Validation of Histamine-Induced Responses Murine Articular Knee Joint
(§2) It is hypothesised that histamine released by trafficking mast cells or by the de novo synthesis of histamine by articular chondrocytes induces a H1-dependant increase in COX-2 mRNA expression and elevated PGE2 synthesis in synovial fibroblasts and articular chondrocytes. To evaluate the role of histamine in pathological processes in the joint, a pharmacodynamic mouse model was developed to investigate the effect of intra-articular injection (IAI) of histamine on joint swelling using calliper measurements, and measuring PGE2 and/or 11-6 levels from synovial knee joint ravages.
(§3) Adult C57B16 mice were dosed with either vehicle or test compound 1 hour prior to intra-articular injection of histamine (5 μmol). Swelling was induced by injection of 6 μl of histamine/saline suspension into the knee joint cavity under inhalation anaesthesia with isoflurane. Joint swelling was quantified by calliper measurements taken at 1, 6, 12, 24, 36 and 48 hr. Terminal synovial fluid knee lavages were sampled and levels of the inflammatory mediator I1-6 were measured in the fluid from synovial knee joint ravages.

[2] = test system: murine articular knee joint; details: intra-articular histamine injection, mice
Excerpt: as §1, §2, §3

[3] = test system: human articular chondrocytes (HAC)
Procedure: (i) Isolation of Human Articular Chondrocytes (HAC) from OA Cartilage for Histamine stimulation. HAC are isolated from cartilage from osteoarthritic tissues removed at joint replacement. Cartilage is incubated overnight in 2 mg/ml collagenase in DMEM+10% FCS+PSG at 37° C., with shaking. The resulting cell suspension is filtered to remove undigested cartilage and the cells are centrifuged at 1200 rpm for 10 minutes. Cells are resuspended in DMEM plus 10% FCS PSG/NEAA/fungizone/gentamycin, plated at approx 5×10^−6 in a T-75 and grown to confluence. Cells are subsequently plated at approx 10,000 cells per well into 96 well plates for stimulation with histamine. Triplicate wells of first passage HAC are treated with either DMEM (10% or 0% FCS) alone (control), or DMEM (10% or 0% FCS) plus histamine (dose range 10 nM up to 1 mM). Cells are incubated at 37° C. for 24 hours, the conditioned medium harvested, and assayed for PGE2, MMP or cytokine production by enzyme linked immunosorbent assay (ELISA). […] For some experiments cells are incubated with specific antagonists for 20 minutes prior to, and in combination with, histamine stimulation.

[4] = test system: human articular chondrocytes (HAC); remark: listed apart in the source
CCR3 = target: T1, CCR3 (Homo sapiens, UniProt P51677); assay: Chemokine (CCR3 ligand) stimulation of human OA cartilage explant, gene expression (low density array Q-PCR); assay type: cell-based
T1 construct: Human osteoarthritic cartilage is obtained during total knee replacement surgery; from tissue; host or cells: human osteoarthritic knee articular cartilage explants (femoral condyles and tibial plateau)
T1 sequence (P51677 1-355): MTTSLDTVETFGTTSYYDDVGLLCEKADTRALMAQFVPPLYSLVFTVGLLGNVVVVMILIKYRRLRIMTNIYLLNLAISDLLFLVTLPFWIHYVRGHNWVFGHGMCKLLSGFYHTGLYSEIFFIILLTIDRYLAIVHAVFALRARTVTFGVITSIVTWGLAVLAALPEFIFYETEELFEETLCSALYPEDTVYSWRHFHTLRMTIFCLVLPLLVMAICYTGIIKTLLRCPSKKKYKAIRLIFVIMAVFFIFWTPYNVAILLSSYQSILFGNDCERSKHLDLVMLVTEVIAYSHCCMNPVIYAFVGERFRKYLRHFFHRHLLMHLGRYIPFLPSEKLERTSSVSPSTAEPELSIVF
Excerpt: (ii) Chemokine Stimulation of Human Cartilage Explant
Human osteoarthritic cartilage is obtained during total knee replacement surgery. Full-depth cartilage slices are obtained from both the femoral condyles and the tibial plateau and explant discs removed using a 5 mm diameter KAI sterile dermal biopsy punch. After dissection, the explants are all pooled in a Petri dish. For each condition, sixteen explants are randomly taken from the Petri dish and cultured in polypropylene 96-well plates with phenol red free Dulbecco's Modified Eagle Medium (DMEM; Gibco, Grand Island, N.Y.), 150 μg/ml gentamicin, 1.5 μg/ml fungizone and 100 units/ml penicillin, 100 μg/ml streptomycin and L-Glutamine.
After an initial 48 hour pre-stimulation, rest period, experimental reagents are added for 24, 48 or 96 hours. Explants are incubated with the appropriate concentration of compound alone, or DMSO as a control, for 20 minutes prior to addition of the chemokine. Cartilage is subsequently treated with either vehicle control (plus DMSO); chemokine (at 30-300 ng/ml) plus DMSO; or chemokine (30 ng/ml) plus the compound of Example 1. Conditioned media are collected 24, 48 or 96 hours post stimulation and stored at −20° C. prior to analysis. Cartilage explants are also collected and snap frozen in liquid nitrogen, prior to RNA extraction.
Extraction of RNA from Cartilage Explants
Each condition is composed of sixteen cartilage explant discs, which are pooled prior to snap freezing in liquid nitrogen. These pooled samples are ground to a fine powder under liquid nitrogen then resuspended in 10 ml trizol in polypropylene Oakridge tubes, and RNA extracted according to the manufacturer's protocol. The RNA pellet is resuspended in approx 500 μl RNAse and DNAse free water and then combined with 1.75 ml Qiagen RLT. RNA is further purified with Qiagen RNEasy mini columns (Qiagen Cat# 74104), as described in the manufacturer's protocol, including on column DNA digestion. The RNA obtained by these procedures is analysed using Agilent bioanalyser technology, according to the manufacturer's instructions, to determine the quantity and quality.
Gene Expression Analysis: the 96 and 48 Gene Fingerprints Using Low Density Arrays (Q-PCR)
Low-density gene arrays [quantitative polymerise chain reaction (Q-PCR) method] with either 96 or 48 genes pertinent to OA (as identified by Affymetrix microarray analysis of OA articular cartilage) are used to assess the effects of treating human diseased cartilage explants with the chemokines eotaxin-2 or RANTES, alone or in combination with the compound of Example 1. Gene expression changes were reported as fold change normalised against a standard non-affected gene: GAPDH.

[5] = Eotaxin 2 stimulation, donor 014—04

**Q.** With `NCCc1c[nH]cn1` [histamine, 2-(4-imidazolyl)-ethylamine] as the molecule, how does the “increase in joint oedema compared to vehicle control animals” value ([1]; intra-articular injection of histamine (5 μmol), C57B16 mice) read?
**A.** 5 fold

**Q.** What about the “increase in release of IL-6 into the synovial fluid” value [2] of the same molecule?
**A.** > 60%

**Q.** And the “release of PGE2” value ([3]; histamine stimulation, n=6 (FIG. 2))?
**A.** dose dependent increase

**Q.** What about the “Cox2 mRNA expression levels” value ([4]; histamine stimulation) of the same molecule?
**A.** increase

**Q.** How did the “inhibition of CCR3 ligand-induced increase in ADAMTS4, MMP13, IL-6, IL-8 and MMP2 mRNA expression” value (CCR3; at 3×pA2, n=3 (FIG. 3)) turn out when `O=C(NC[C@@H](O)CN1CCC(Oc2ccc(Cl)c(Cl)c2)CC1)c1sc(=O)[nH]c1C(F)(F)F` [Example 1, N-{(2R)-3-[4-(3,4-Dichlorophenoxy)piperidin-1-yl]-2-hydroxypropyl}-2,3-dihydro-2-oxo-4-(trifluoromethyl)-5-thiazolecarboxamide benzenesulfonate Form A] was run?
**A.** inhibited

**Q.** How did the “histamine-induced joint swelling under treatment” value ([1]; 5.1 mg/kg, dosed 1 hour prior to intra-articular histamine) turn out when `Clc1ccc2c(c1)CCc1cccnc1C2=C1CCNCC1` [desloratadine] was run?
**A.** almost completely ablated

**Q.** `O=C(O)COCCN1CCN(C(c2ccccc2)c2ccc(Cl)cc2)CC1` (stereo not shown) [cetirizine] was tested. Which “inhibition of histamine-induced PGE2 release” value ([3]; 100 nM (FIG. 2)) did it give?
**A.** inhibited

**Q.** What about the “inhibition of histamine-induced increase in Cox2 mRNA expression” value ([4]; 100 nM) of the same molecule?
**A.** inhibited

B1: Eotaxin 2: the CCR3 ligand, a chemokine used to stimulate cartilage explants (protein, UniProt O00175 27-119, looked up)
C-C motif chemokine 24: VVIPSPCCMFFVSKRIPENRVVSYQLSSRSTCLKAGVIFTTKKGQQFCGDPKQEWVQRYMKNLDAKQKKASPRARAVAVKGPVQRYPGNQTTC
**Q.** Which “increased expression of IL-6” value (CCR3; [5]) does the source give for B1 here?
**A.** 14 fold

**Q.** And the “increased expression of IL-8” value (CCR3; [5])?
**A.** 11 fold

**Q.** And the “elevation of periostin expression” value (CCR3; donor 014—04)?
**A.** 2 fold

**Q.** And the “enhanced expression of ADAMTS4” value (CCR3; donor 014—04)?
**A.** 3.6 fold

**Q.** What about the “enhanced expression of ADAMTS 5” value (CCR3; donor 014—04) of the same molecule?
**A.** 6 fold
